Experiment: Measurement of solubility in water
Format: physicochemical
Details: 200 g/L in 15° C. water

proportion of the complex compound precipitated | Substance | proportion of the complex compound dissolved | time for dissolution (100% dissolved)
90% | iron-citrate complex compound [Comparative Example 1] | 10% | 
 | iron-citrate complex compound [Example 1] | 100% | ≤ 5 min

— US20240034744A1, “COMPLEX COMPOUND OF COMPRISING THE CITRATE AND IRON ION AND THE FOOD COMPOSITION COMPRISING THE SAME” (priority 2022, published 2024)
